Results published in publication PMC10610095 (Pharmaceuticals, 2023).
Where “and” joins values, the source holds several entries; their conditions need not be identical. Equal values may be shown once.

Legend:
[1] = test system: GPR44 vs thromboxane receptor (TP); parameters: method as in PMID 15179446; details: cited from earlier work
TP = test system: TP; parameters: method as in PMID 33800801; details: cited from earlier work
DP1 = test system: DP1; parameters: method as in PMID 33800801; details: cited from earlier work
GPR44 = test system: GPR44; parameters: method as in PMID 30557325; details: clinical trial, orally administered; cited from earlier work
[2] = Biodistribution in healthy control NOD/SCID mice; assay type: in vivo; details: i.v.
Method: The uptake of the tracer in the kidney was ~4.00 ± 0.80% ID/g at 30 min p.i, 2.11 ± 1.06% ID/g at 60 min p.i., and 1.33 ± 0.47% ID/g at 90 min p.i. […] Low tracer uptake levels were common in the majority of organs, excluding excretion organs such as the liver. […] Of the time points, 30 min post-injection was chosen to evaluate the next specific GPR44 mouse models.
The biodistribution of [^18F]TM30089 was investigated in healthy NOD/SCID mice at various time points post-injection. Three time points (30 min, 60 min, or 90 min post-injection) and one blocking time point (30 min post-injection) were selected in the biodistribution (n = 4/each group). […] Under general anesthesia, NOD/SCID mice were administered doses of tracer (~3.7 MBq) intravenously through the tail vein. At the above-specified time points, the animals were euthanized, and the organs/tissues of interest were harvested. Organs/tissues were weighed, and the gamma was counted. Radioactive uptakes were calculated and reported as percentage of injected dose per gram (% ID/g) for each organ.

GPR44 (1.1 B4 tumor) = target: T1, GPR44 (1.1 B4 tumor) (Homo sapiens, UniProt Q9Y5Y4); experiment: Biodistribution in NOD/SCID mice implanted with 1.1 B4 cells, with and without blocking agent; assay type: in vivo; details: 30 min p.i.; for pancreas uptake: 1.1 B4 model; for tumor uptake: 1.1 B4 tumor
T1 construct: 1.1 B4 cells were implanted into NOD/SCID mice to generate GPR44-expressing mouse models; endogenous in cells; host or cells: human 1.1 B4 hybrid cell line (human pancreatic islet culture x PANC-1), subcutaneous xenograft in NOD/SCID mice
T1 sequence (Q9Y5Y4 1-395): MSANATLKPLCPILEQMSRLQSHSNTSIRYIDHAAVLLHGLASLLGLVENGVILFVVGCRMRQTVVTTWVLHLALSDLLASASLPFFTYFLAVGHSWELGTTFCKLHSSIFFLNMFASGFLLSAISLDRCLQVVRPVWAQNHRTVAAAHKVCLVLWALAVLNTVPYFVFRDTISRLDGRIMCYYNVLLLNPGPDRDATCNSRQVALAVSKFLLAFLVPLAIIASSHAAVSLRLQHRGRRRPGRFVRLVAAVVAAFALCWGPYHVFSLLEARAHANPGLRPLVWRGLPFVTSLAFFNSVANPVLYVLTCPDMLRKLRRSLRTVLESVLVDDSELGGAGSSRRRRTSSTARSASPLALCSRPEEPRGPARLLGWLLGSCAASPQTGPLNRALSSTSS
Method: NOD/SCID mice (n = 24) were subcutaneously injected with 1.1 B4 cells above their shoulders. Tumors were established 17–21 d after injection.
(§1) Under general anesthesia, NOD/SCID mice were administered doses of tracer (~3.7 MBq) intravenously through the tail vein, then the animals were euthanized at 30 min post-injection. Organs/tissues/tumors of interest were harvested, weighed, and gamma-counted. Radioactive uptakes were calculated and reported as percentage of injected dose per gram (% ID/g) for each organ/tissue/tumor.

[3] = target: T2, GPR44 (transplanted human islets) (Homo sapiens, UniProt Q9Y5Y4); experiment: Biodistribution in NOD/SCID mice with transplanted human islets in a renal capsule; assay type: in vivo; details: 500 IEQ human islets, 30 min p.i., two individual mice
T2 construct: Only transplanted human islets were targeted by the GPR44 radio-probes; tissue Southern California Islet Cell Resources Center; host or cells: human pancreatic islets from healthy adult donors, 500 IEQ transplanted into the renal capsule of NOD/SCID mice
T2 sequence (Q9Y5Y4 1-395): T1 sequence (Q9Y5Y4 1-395)
Method: A procedure similar to that of the above murine biodistribution was performed in this biodistribution study. Mice were euthanized at 30 min post-injection, and the organs/tissues of interest were collected.
Human islets with diameters of less than 250 µm were used for transplantation. A total of 500 IEQ human islets were transplanted into the renal capsule of NOD/SCID mice (n = 5) using a well-established standard procedure.
as §1, with “Organs/tissues/islets” for “Organs/tissues/tumors”, “organ/tissue/islet.” for “organ/tissue/tumor.”

## O=C(O)CCn1c2c(c3ccccc31)C[C@H](NS(=O)(=O)c1ccc(F)cc1)CC2 [ramatroban]
[1]
  selectivity for GPR44 than for TP (times less): approximately 16 times

## CN(C1CCc2c(c3ccccc3n2CC(=O)O)C1)S(=O)(=O)c1ccc(F)cc1 (stereo not shown) [TM-30089, {3-[(4-fluoro-benzenesulfonyl)methyl-amino]-1,2,3,4-tetrahydro-carbazol-9-yl}acetic acid]
TP
  off-target binding to TP: negligible off-target binding
DP1
  off-target binding to DP1: negligible off-target binding

## CC(=O)Nc1cccc2c1c(Sc1ccc(Cl)cc1)c(C)n2CC(=O)O [AZD1981]
GPR44
  improvement in insulin secretion: did not show a significant improvement in insulin secretion

## CN(C1CCc2c(c3ccccc3n2CC(=O)O)C1)S(=O)(=O)c1ccc([18F])cc1 (stereo not shown) [[^18F]TM-30089]
[2]
  uptake in other organs (heart, lung, pancreas, spleen): low uptakes
[2]; 30 min p.i.
  kidney uptake: ~ 4.00 ± 0.80 % ID/g
  liver uptake: 15.31 ± 0.16 % ID/g
  small intestine uptake: 10.67 ± 2.13 % ID/g
[2]; 60 min p.i.
  kidney uptake: 2.11 ± 1.06 % ID/g
  liver uptake: 8.76 ± 1.60 % ID/g
  small intestine uptake: 10.14 ± 0.47 % ID/g
[2]; 90 min p.i.
  kidney uptake: 1.33 ± 0.47 % ID/g
  liver uptake: 6.62 ± 0.57 % ID/g
  small intestine uptake: 9.90 ± 0.26 % ID/g
GPR44 (1.1 B4 tumor); blocked group (cold TM30089 1 mg/kg)
  pancreas uptake: 0.26 ± 0.05 % ID/g
GPR44 (1.1 B4 tumor); non-blocked group
  pancreas uptake: 0.38 ± 0.04 % ID/g
GPR44 (1.1 B4 tumor); blocked with cold TM30089 (1 mg/kg)
  tumor uptake: 0.24 ± 0.02 % ID/g
GPR44 (1.1 B4 tumor); non-blocked
  tumor uptake: 27.81 ± 1.71 % ID/g
[3]
  uptake in human islets transplanted into a kidney capsule: 10.87 % ID/g and 6.21 % ID/g
